Among the data in PubChem BioAssay (NCI) are GI50 and TGI values, retold here.

SMILES strings stand for the structures. Where “and” joins values, the source holds several entries; their conditions need not be identical. Equal values may be shown once.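 Five compound concentrations were applied to cells in 96-well plates for 48 hours; endpoints were derived by simple linear interpolation of the resulting dose-response curve. The concentration for 50% growth inhibition is given as GI50. At the TGI there is no net growth.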

Some test systems named below: A498 renal; ACHN renal; HCC-2998 colon; HCT-116 colon; K-562 leukemia; M14 melanoma; MDA-MB-231 breast; RPMI-8226 leukemia; SK-MEL-2 melanoma; UO-31 renal.
Holding throughout (assay): NCI-60 cell line screen, 48 h

For `CS(=O)(=O)CCNCc1ccc(-c2ccc3ncnc(Nc4ccc(OCc5ccccc5)cc4)c3c2)o1`, the GI50 was 2.98 µM in the assay on A498 renal; 1.28 µM in the assay with ACHN renal; 5.26 µM with HCC-2998 colon; 5.99 µM in the assay with HCT-116 colon; 9.27 µM in the assay with K-562 leukemia; 4.89 µM in the assay on M14 melanoma. In addition, the GI50 in the assay with MDA-MB-231 breast was 4.82 µM; in the assay with RPMI-8226 leukemia it was 5.38 µM; with SK-MEL-2 melanoma it was 5.5 µM; in the assay with UO-31 renal, 2.95 µM. In addition, the TGI with A498 renal is 8.27 µM; with ACHN renal, greater than 25 µM; with HCC-2998 colon, 12.1 µM; in the assay on HCT-116 colon, greater than 17 µM; in the assay on K-562 leukemia, greater than 25 µM; with M14 melanoma it was 9.74 µM. Besides, the TGI was 11.1 µM in the assay with MDA-MB-231 breast, greater than 16.8 µM in the assay with RPMI-8226 leukemia, 10.7 µM in the assay with SK-MEL-2 melanoma and 8.95 µM with UO-31 renal.

For the molecule `O=C(O)C(=Cc1ccc(-c2ccccc2)cc1)C(=O)O`, the TGI was found to be 40 µM in the assay on A498 renal; 60.1 µM in the assay with ACHN renal; 21.9 µM in the assay with HCC-2998 colon; 24.7 µM in the assay with HCT-116 colon; 36.9 µM in the assay with K-562 leukemia; 29.5 µM in the assay on M14 melanoma. The TGI in the assay with MDA-MB-231 breast came to 38.5 µM; with RPMI-8226 leukemia, 20.6 µM; in the assay with SK-MEL-2 melanoma it was 16.6 µM; in the assay on UO-31 renal it was 27.6 µM.

As for `CC/C=C\C[C@H](F)C/C=C1/C(=O)C=C[C@@H]1C/C=C\CCCC(=O)O`, the GI50 was 5.59 µM in the assay with A498 renal; 4.99 µM with ACHN renal; 6.93 µM with HCC-2998 colon; 1.34 µM in the assay on HCT-116 colon; 2.18 µM in the assay with K-562 leukemia; 6.53 µM with M14 melanoma. For the same molecule, the GI50 is 12.7 µM with MDA-MB-231 breast, 1.22 µM in the assay on RPMI-8226 leukemia, 6.7 µM in the assay on SK-MEL-2 melanoma and 5.78 µM in the assay with UO-31 renal. The TGI in the assay on A498 renal was 11 µM; in the assay with ACHN renal, 9.85 µM; in the assay on HCC-2998 colon it was 12.2 µM; in the assay with HCT-116 colon, 4.78 µM; in the assay on K-562 leukemia, greater than 32.5 µM; in the assay on M14 melanoma, 20 µM. Besides, the TGI is greater than 32.5 µM in the assay with MDA-MB-231 breast, 30.8 µM in the assay on RPMI-8226 leukemia, 16.9 µM in the assay on SK-MEL-2 melanoma and 12.4 µM in the assay on UO-31 renal.

In the case of `O=C(O)c1nn(-c2ccccc2-c2n[nH]c(=O)[nH]c2=O)c(=O)[nH]c1=O`, the TGI in the assay on A498 renal, in the assay with ACHN renal, in the assay on HCC-2998 colon, in the assay on HCT-116 colon, with K-562 leukemia and in the assay on M14 melanoma was greater than 100 µM each time. Moreover, the TGI with MDA-MB-231 breast, in the assay on RPMI-8226 leukemia, in the assay on SK-MEL-2 melanoma and with UO-31 renal was greater than 100 µM in each case.

On to `O=C1C(Cl)=C(NCCN2CCOCC2)C(=O)c2ncccc21`, for which the GI50 in the assay with A498 renal is 1.91 µM; with ACHN renal, 1.45 µM; in the assay on HCC-2998 colon it was 1.73 µM; in the assay with K-562 leukemia, 1.67 µM; with RPMI-8226 leukemia, 2.72 µM; in the assay with SK-MEL-2 melanoma, 2.16 µM. Also, the GI50 with UO-31 renal is 1.28 µM. Further, the TGI with A498 renal was 7.65 µM and 10.9 µM; in the assay on ACHN renal, 7.29 µM and 2.91 µM; in the assay on HCC-2998 colon, 2.85 µM and 3.47 µM; in the assay on HCT-116 colon it was 3.51 µM and 3.58 µM; in the assay with K-562 leukemia, 3.67 µM and 4.61 µM; in the assay with M14 melanoma, 3.17 µM and 3.25 µM. Further, the TGI was 5.02 µM and 3.77 µM with MDA-MB-231 breast; 9.23 µM with RPMI-8226 leukemia; 4.37 µM with SK-MEL-2 melanoma; 3.03 µM and 2.61 µM in the assay on UO-31 renal.

In the case of `CC1CN1C(=O)NCCCCCCNC(=O)N1CC1C` (stereo not given), the TGI with A498 renal, with ACHN renal, in the assay on HCC-2998 colon, with HCT-116 colon, with K-562 leukemia and with M14 melanoma was greater than 100 µM throughout. The TGI in the assay with MDA-MB-231 breast, in the assay with RPMI-8226 leukemia, in the assay with SK-MEL-2 melanoma and with UO-31 renal was greater than 100 µM each time.

With `COc1ccc2c(c1)CCCN2c1c2ccccc2nc2ccccc12`, the GI50 with A498 renal was 0.269 µM; in the assay on ACHN renal it was 0.611 µM; in the assay with HCC-2998 colon, 0.311 µM; in the assay on HCT-116 colon, 0.334 µM; with K-562 leukemia, 0.341 µM; in the assay with MDA-MB-231 breast, 0.665 µM. For the same molecule, the GI50 in the assay with RPMI-8226 leukemia is 0.431 µM; with SK-MEL-2 melanoma, 0.813 µM; in the assay with UO-31 renal it was 0.69 µM. The TGI in the assay with A498 renal was 0.808 µM; with ACHN renal, greater than 100 µM; in the assay on HCC-2998 colon, 1.04 µM; in the assay with HCT-116 colon, 14.3 µM; in the assay with K-562 leukemia, greater than 100 µM; in the assay on MDA-MB-231 breast it was greater than 100 µM. The TGI in the assay with RPMI-8226 leukemia is 4.98 µM; with SK-MEL-2 melanoma, greater than 100 µM; with UO-31 renal, greater than 100 µM.

As for `O=C1Nc2ccccc2C1(c1ccc(O)cc1)c1ccc(O)cc1`, the GI50 in the assay on A498 renal was 17.8 µM; with ACHN renal, 17.9 µM; in the assay with HCC-2998 colon, 1.99 µM; in the assay on HCT-116 colon it was 14.5 µM; in the assay on K-562 leukemia, 29.2 µM; in the assay on M14 melanoma, 20.1 µM. Further, the GI50 with MDA-MB-231 breast is 20.3 µM; in the assay with RPMI-8226 leukemia, 25.8 µM; with SK-MEL-2 melanoma it was 22.9 µM; in the assay with UO-31 renal it was 23.7 µM. Besides, the TGI in the assay with A498 renal was 47.1 µM; with ACHN renal, greater than 100 µM; with HCC-2998 colon, 27 µM; in the assay with HCT-116 colon, 31.6 µM; in the assay on K-562 leukemia it was greater than 100 µM; with M14 melanoma, 49.3 µM. The TGI in the assay with MDA-MB-231 breast is 48.7 µM; in the assay with RPMI-8226 leukemia, 70.9 µM; with SK-MEL-2 melanoma it was 50.6 µM; in the assay with UO-31 renal, greater than 89.1 µM.

For `COc1cc2ncn(-c3cc(OCc4cccs4)c(C(N)=O)s3)c2cc1OC`, the GI50 in the assay on A498 renal is 1.25 µM; in the assay on ACHN renal, 6.39 µM; in the assay with HCC-2998 colon, 2.29 µM; in the assay on HCT-116 colon, 1.68 µM; in the assay on K-562 leukemia, 1.14 µM; in the assay on M14 melanoma, 1.82 µM. Besides, the GI50 with MDA-MB-231 breast was 2.21 µM; in the assay with RPMI-8226 leukemia, 3.24 µM; in the assay on SK-MEL-2 melanoma, 2.08 µM; in the assay with UO-31 renal, 2.77 µM. For the same molecule, the TGI in the assay with A498 renal was 16.9 µM; in the assay on ACHN renal, greater than 25 µM; in the assay on HCC-2998 colon, greater than 25 µM; in the assay on HCT-116 colon, greater than 25 µM; in the assay with K-562 leukemia it was greater than 25 µM; in the assay on M14 melanoma, greater than 17.3 µM. For the same molecule, the TGI is greater than 21.2 µM in the assay on MDA-MB-231 breast, greater than 25 µM with RPMI-8226 leukemia, 17 µM in the assay on SK-MEL-2 melanoma and greater than 25 µM in the assay with UO-31 renal.
